Measurements published in US11173124B2, “Oral delivery of GLP-1 peptide analogs” (MEDIMMUNE LIMITED, priority 2017, dated 2021).
Like-named read-outs stand apart in the source and are kept apart here.

Assay: First rat intraduodenal study, sodium caprate as permeation enhancer (Example 4)
Type: in vivo
Conditions: for AUC / Cmax / Tmax / half-life: in vivo; for bioavailability: plasma
Procedure: Solution formulations comprising GLP-1 peptide analogs were injected into rats in the duodenum segment of the small intestine. The first ID study involved the use of sodium caprate as the permeation enhancer and the SEQ ID NO:3 GLP-1 peptide analog. Absolute bioavailability (% F) is a percentage-expressed measure of systemic drug exposure after oral, or in the current example intraduodenal, administration to the systemic exposure generated with intravenous (IV) administration of drug solution. Absolute bioavailability, (% F), is calculated as a percentage of systemic, or blood, drug concentration area under curve (AUC) of the AUC of IV administration adjusted to the amounts of drug given via these routes of administration.

[1] = Intraduodenal, 1 mg/kg peptide, 0 mg/kg sodium caprate, 0.5 mg/mL in PBS pH 8.0
[2] = 50 mg/kg, pH 8.5, rat, Intraduodenal, 50 mg/kg peptide + 50 mg/kg sodium caprate, PBS pH 8.5
[3] = iv, 0.01 mg/kg, pH 8, rat, 0.01 mg/kg peptide in PBS pH 8.0
[4] = pH 8, rat, Intraduodenal, 1 mg/kg peptide, 0 mg/kg sodium caprate, 0.5 mg/mL in PBS pH 8.0
[5] = pH 8.5, rat, Intraduodenal, 1 mg/kg peptide + 50 mg/kg sodium caprate, PBS pH 8.5
[6] = pH 8.5, rat, Intraduodenal, 10 mg/kg peptide + 50 mg/kg sodium caprate, PBS pH 8.5
[7] = sc, 0.118 mg/kg, Subcutaneous, 0.118 mg/kg peptide in 0.1% BSA-PBS

## CC[C@H](C)[C@H](NC(=O)C(C)(Cc1ccccc1)NC(=O)[C@H](CCC(=O)O)NC(=O)[C@H](CCCCNC(=O)COCCOCCNC(=O)COCCOCCNC(=O)CC[C@H](NC(=O)CCCCCCCCCCCCCCCCC(=O)O)C(=O)O)NC(=O)[C@H](C)NC(=O)[C@H](C)NC(=O)[C@H](CCC(=O)O)NC(=O)CNC(=O)[C@H](CCC(=O)O)NC(=O)[C@H](CC(C)C)NC(=O)C(C)(Cc1ccccc1)NC(=O)[C@H](CO)NC(=O)C(C)(CO)NC(=O)[C@@H](NC(=O)[C@H](CC(=O)O)NC(=O)[C@H](CO)NC(=O)[C@@H](NC(=O)C(C)(Cc1ccccc1)NC(=O)[C@H](CO)NC(=O)CNC(=O)[C@H](CCC(=O)O)NC(=O)C(C)(C)NC(=O)[C@@H](N)Cc1c[nH]cn1)[C@@H](C)O)C(C)C)C(=O)N[C@@H](C)C(=O)NC(C)(Cc1ccccc1)C(=O)N[C@H](C(=O)N[C@H](C(=O)NC(C)(CCCCN)C(=O)NCC(=O)NCC(N)=O)C(C)C)C(C)C (stereo partly drawn) [SEQ ID NO: 3, Free-H-[AIB]-EGS-[αMePhe]-TSDV-[αMeSer]-S-[αMePhe]-LEGEAAK[(PEG2)2-γE-Stearate]-E-[αMePhe]-IA-[αMePhe]-VV-[αMeLys]-GG-amide]
ID, 1 mg/kg peptide, 50 mg/kg sodium caprate (to 0.15%)
  improvement in permeation: ~5 fold
Intraduodenal, 1 mg/kg peptide + 50 mg/kg sodium caprate, PBS pH 8.5
  F: 0.15%
[1]
  F: 0.035%
  bioavailability: 0.035%
Intraduodenal, 10 mg/kg peptide + 50 mg/kg sodium caprate, PBS pH 8.5
  F: 0.29%
Intraduodenal, 50 mg/kg peptide + 50 mg/kg sodium caprate, PBS pH 8.5
  F: 0.71%
Intravenous, 0.01 mg/kg peptide in PBS pH 8.0
  F: 100%
[2]
  AUC: 46000 ng·h/mL
  Cmax: 6300 ng/mL
  Tmax: 0.44 h
50 mg/kg, pH 8.5, rat, Intraduodenal, 50 mg/kg peptide + 50 mg/kg sodium caprate, PBS pH 8.5, read-out: T ½ (converted)
  half-life: 8.3 h
[3]
  AUC: 1300 ng·h/mL
  Cmax: 210 ng/mL
  Tmax: 0.12 h
iv, 0.01 mg/kg, pH 8, rat, Intravenous, 0.01 mg/kg peptide in PBS pH 8.0, read-out: T ½ (converted)
  half-life: 10 h
[4]
  AUC: 45 ng·h/mL
  Cmax: 5.1 ng/mL
  Tmax: 2.3 h
pH 8, rat, Intraduodenal, 1 mg/kg peptide, 0 mg/kg sodium caprate, 0.5 mg/mL in PBS pH 8.0, read-out: T ½ (converted)
  half-life: 8.8 h
[5]
  AUC: 200 ng·h/mL
  Cmax: 34 ng/mL
  Tmax: 0.38 h
pH 8.5, rat, Intraduodenal, 1 mg/kg peptide + 50 mg/kg sodium caprate, PBS pH 8.5, read-out: T ½ (converted)
  half-life: 9.3 h
[6]
  AUC: 3800 ng·h/mL
  Cmax: 470 ng/mL
  Tmax: 0.44 h
pH 8.5, rat, Intraduodenal, 10 mg/kg peptide + 50 mg/kg sodium caprate, PBS pH 8.5, read-out: T ½ (converted)
  half-life: 10 h
[7]
  AUC: 11000 ng·h/mL
  Cmax: 460 ng/mL
  Tmax: 9 h
sc, 0.118 mg/kg, Subcutaneous, 0.118 mg/kg peptide in 0.1% BSA-PBS, read-out: T ½ (converted)
  half-life: 11 h
intraduodenal, 0.71% with 50 mg/kg sodium caprate vs 0.035% without formulation intervention
  increase of bioavailability: ~20 fold
sc, Subcutaneous, 0.118 mg/kg peptide in 0.1% BSA-PBS
  bioavailability: 71%
